Measurements published in ChEMBL document CHEMBL1152794, “Synthesis and biological evaluation of a small molecule library of 3rd generation multidrug resistance modulators” (Bioorg Med Chem, 2009).

What follows are molecules tested against ATP-dependent translocase ABCB1 (Homo sapiens, UniProt P08183) (assay: Inhibition of P-glycoprotein-mediated multidrug resistance in adriamycin-resistant human A2780/ADR cells by calcein AM assay).
ATP-dependent translocase ABCB1, sequence (P08183 whole entry): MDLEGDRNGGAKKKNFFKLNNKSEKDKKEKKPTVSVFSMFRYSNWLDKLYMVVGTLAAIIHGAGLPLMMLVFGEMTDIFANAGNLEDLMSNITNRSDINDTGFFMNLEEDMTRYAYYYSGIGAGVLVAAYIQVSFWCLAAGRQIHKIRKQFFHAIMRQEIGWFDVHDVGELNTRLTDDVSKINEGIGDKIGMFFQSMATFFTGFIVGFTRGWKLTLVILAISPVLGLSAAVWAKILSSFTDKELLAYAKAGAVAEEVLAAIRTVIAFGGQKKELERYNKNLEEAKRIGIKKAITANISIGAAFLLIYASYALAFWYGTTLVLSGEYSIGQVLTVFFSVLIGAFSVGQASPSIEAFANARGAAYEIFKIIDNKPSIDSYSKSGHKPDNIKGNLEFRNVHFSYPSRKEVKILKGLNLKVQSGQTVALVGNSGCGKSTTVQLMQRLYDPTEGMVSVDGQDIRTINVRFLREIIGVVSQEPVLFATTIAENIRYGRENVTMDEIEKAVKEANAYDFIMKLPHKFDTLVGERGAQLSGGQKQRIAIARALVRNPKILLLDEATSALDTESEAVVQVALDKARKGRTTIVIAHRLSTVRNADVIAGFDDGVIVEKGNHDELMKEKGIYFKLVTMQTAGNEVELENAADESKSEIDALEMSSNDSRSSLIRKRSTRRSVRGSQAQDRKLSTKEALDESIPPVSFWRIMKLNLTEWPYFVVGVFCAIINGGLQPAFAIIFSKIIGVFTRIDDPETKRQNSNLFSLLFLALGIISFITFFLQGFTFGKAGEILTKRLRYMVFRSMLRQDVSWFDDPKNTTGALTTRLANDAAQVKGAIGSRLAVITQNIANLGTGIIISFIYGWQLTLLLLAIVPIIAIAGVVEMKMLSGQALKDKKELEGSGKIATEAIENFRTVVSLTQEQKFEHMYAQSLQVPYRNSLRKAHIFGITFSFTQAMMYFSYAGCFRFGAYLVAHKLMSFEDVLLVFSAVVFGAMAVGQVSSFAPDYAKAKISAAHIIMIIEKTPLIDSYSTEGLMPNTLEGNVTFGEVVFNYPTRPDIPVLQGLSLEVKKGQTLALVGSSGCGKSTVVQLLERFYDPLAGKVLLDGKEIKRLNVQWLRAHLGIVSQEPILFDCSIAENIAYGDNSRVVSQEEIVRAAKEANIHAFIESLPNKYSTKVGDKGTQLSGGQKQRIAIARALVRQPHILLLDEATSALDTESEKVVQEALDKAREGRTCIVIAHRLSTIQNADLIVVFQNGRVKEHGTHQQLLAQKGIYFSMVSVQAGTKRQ
Type: cell-based
Molecule `COc1cc2c(cc1OC)CN(CCc1ccc(NC(=O)Nc3cccc([N+](=O)[O-])c3)cc1)CC2` has an IC50 of 670 nM.
For `COc1cc2c(cc1OC)CN(CCc1ccc(NC(=O)c3ccccc3N)cc1)CC2`, the IC50 was 8500 nM.
`COc1cc2c(cc1OC)CN(CCc1ccc(NC(=O)Nc3ccccc3N)cc1)CC2` gave an IC50 of 21000 nM.
For `COc1cc2c(cc1OC)CN(CCc1ccc(NC(=O)c3ccc4ccccc4n3)cc1)CC2`, the IC50 was 850 nM.
In the case of `COc1cc2c(cc1OC)CN(CCc1ccc(NC(=O)c3ccccc3Br)cc1)CC2`, the IC50 is reported as 3300 nM.
Molecule `COc1cc2c(cc1OC)CN(CCc1ccc(NC(=O)c3ccc4ncccc4c3)cc1)CC2` has an IC50 of 650 nM.
`COc1cc2c(cc1OC)CN(CCc1ccc(NC(=O)Nc3ccc(N)cc3)cc1)CC2` gave an IC50 of 31000 nM.
Molecule `COc1cc2c(cc1OC)CN(CCc1ccc(NC(=O)/C=C/c3ccccc3[N+](=O)[O-])cc1)CC2` has an IC50 of 1100 nM.
Work on `COc1cc2c(cc1OC)CN(CCc1ccc(NC(=O)c3ccc4c(c3)OCO4)cc1)CC2` yielded an IC50 of 2100 nM.
Work on `COc1cc2c(cc1OC)CN(CCc1ccc(NC(=O)c3ccc([N+](=O)[O-])cc3)cc1)CC2` yielded an IC50 of 1400 nM.
Molecule `Nc1ccc(C(=O)Nc2ccc(CCN3CCc4ccccc4C3)cc2)cc1` has an IC50 of 12000 nM.
With `COc1cc2c(cc1OC)CN(CCc1ccc(NC(=O)Nc3ccc([N+](=O)[O-])cc3)cc1)CC2` the IC50 was 1500 nM.
`Nc1ccccc1NC(=O)Nc1ccc(CCN2CCc3ccccc3C2)cc1` was tested, and the IC50 was 19000 nM.
For `COc1cc2c(cc1OC)CN(CCc1ccc(NC(=O)COc3ccccc3)cc1)CC2`, the IC50 was 3100 nM.
Molecule `COc1cc2c(cc1OC)CN(CCc1ccc(NC(=O)c3cnc4ccccc4n3)cc1)CC2` has an IC50 of 470 nM.
`COc1cc2c(cc1OC)CN(CCc1ccc(NC(=O)c3cccc(Br)c3)cc1)CC2` showed an IC50 of 1800 nM.
Molecule `COc1cc2c(cc1OC)CN(CCc1ccc(NC(=O)c3ccccc3[N+](=O)[O-])cc1)CC2` has an IC50 of 5400 nM.
Molecule `COc1cc2c(cc1OC)CN(CCc1ccc(NC(=O)c3ccc(N)cc3)cc1)CC2` has an IC50 of 4400 nM.
In the case of `COc1cc2c(cc1OC)CN(CCc1ccc(NC(=O)c3ccccc3)cc1)CC2`, the IC50 is reported as 4100 nM.
`COc1cc2c(cc1OC)CN(CCc1ccc(NC(=O)COc3ccccc3N)cc1)CC2` showed an IC50 of 3400 nM.
Molecule `COc1cc2c(cc1OC)CN(CCc1ccc(NC(=O)c3cccnc3)cc1)CC2` has an IC50 of 4800 nM.
Work on `COc1cc2c(cc1OC)CN(CCc1ccc(NC(=O)Nc3ccccc3[N+](=O)[O-])cc1)CC2` yielded an IC50 of 330 nM.
`COc1cc2c(cc1OC)CN(CCc1ccc(NC(=O)c3ccc4ccccc4c3)cc1)CC2` gave an IC50 of 630 nM.
Work on `O=C(Nc1ccc(CCN2CCc3ccccc3C2)cc1)c1ccc([N+](=O)[O-])cc1` yielded an IC50 of 5600 nM.
In the case of `COc1cc2c(cc1OC)CN(CCc1ccc(NC(=O)c3cnc4ccccc4c3)cc1)CC2`, the IC50 is reported as 570 nM.
Work on `COc1cc2c(cc1OC)CN(CCc1ccc(NC(=O)c3ccnc4ccccc34)cc1)CC2` yielded an IC50 of 4700 nM.
Work on `COc1cc2c(cc1OC)CN(CCc1ccc(NC(=O)COc3ccccc3[N+](=O)[O-])cc1)CC2` yielded an IC50 of 220 nM.
With `COc1cc2c(cc1OC)CN(CCc1ccc(NC(=O)/C=C/c3ccc(Cl)cc3)cc1)CC2` the IC50 was 670 nM.
`COc1cc2c(cc1OC)CN(CCc1ccc(NC(=O)/C=C/c3ccccc3)cc1)CC2` showed an IC50 of 1400 nM.
`COc1cc2c(cc1OC)CN(CCc1ccc(NC(=O)c3cc(OC)c(OC)cc3NC(=O)c3cnc4ccccc4c3)cc1)CC2` gave an IC50 of 78 nM.
`COc1cc2c(cc1OC)CN(CCc1ccc(NC(=O)Nc3cccc(N)c3)cc1)CC2` gave an IC50 of 14000 nM.
With `O=C(Nc1ccc(CCN2CCc3ccccc3C2)cc1)c1ccccc1[N+](=O)[O-]` the IC50 was 14000 nM.
`COc1cc(/C=C/C(=O)Nc2ccc(CCN3CCc4cc(OC)c(OC)cc4C3)cc2)c([N+](=O)[O-])cc1OC` gave an IC50 of 1500 nM.
Molecule `O=C(Nc1ccc(CCN2CCc3ccccc3C2)cc1)Nc1ccccc1[N+](=O)[O-]` has an IC50 of 770 nM.
